According to patent publication US4698338A, “7[2-(2-aminothiazol-4-yl)-2-benzyloximino]acetamido-3[4-al kyl-5-oxo-6-hydroxy-3,4-dihydro-1,2,4-triazin-3-yl]thiomethyl cephalosporins” (Eli Lilly and Company, priority 1986, dated 1987):
Converted amounts (≈) assume the structure as drawn. Like-named read-outs stand apart in the source and are kept apart here.

Tests used:
Experiment in all cases: standard agar dilution in vitro test
Type in all cases: cell-based
[1] = system: Acinetobacter calcoaceticus AC12; details: read-out: Minimum Inhibitory Concentration
Source text: (§1) The antibacterial activity of the compounds of the formula 1 is illustrated by the data presented in Table 2 for two such compounds. The data presented are the minimum inhibitory concentrations (μg/ml) against representative pathogens obtained in the standard agar dilution in vitro test.

[2] = system: Citrobacter freundii CF17; details: read-out: Minimum Inhibitory Concentration
Source text: as §1

[3] = system: Enterobacter aerogenes C32; details: Klebsiella aerogenes, read-out: Minimum Inhibitory Concentration
Source text: as §1

[4] = system: Enterobacter aerogenes EB17; details: Klebsiella aerogenes, read-out: Minimum Inhibitory Concentration
Source text: as §1

[5] = system: Enterobacter cloacae 265A; details: read-out: Minimum Inhibitory Concentration
Source text: as §1

Enterobacter cloacae EB5 = details: read-out: Minimum Inhibitory Concentration
Source text: as §1

Escherichia coli EC14 = system: Escherichia coli EC14
Source text: as §1

Escherichia coli N10 = details: read-out: Minimum Inhibitory Concentration
Source text: as §1

Escherichia coli TEM = details: read-out: Minimum Inhibitory Concentration
Source text: as §1

[6] = system: Haemophilus influenzae C.L.; details: read-out: Minimum Inhibitory Concentration
Source text: as §1

[7] = system: Klebsiella pneumoniae KAE; details: read-out: Minimum Inhibitory Concentration
Source text: as §1

[8] = system: Klebsiella pneumoniae X26; details: read-out: Minimum Inhibitory Concentration
Source text: as §1

[9] = system: Klebsiella pneumoniae X68
Source text: as §1

Proteus inconstans PR33 = details: Providencia alcalifaciens
Source text: as §1

Proteus morganii PR15 = details: Morganella morganii, read-out: Minimum Inhibitory Concentration
Source text: as §1

Proteus rettgeri C24 = details: Providencia rettgeri
Source text: as §1

[10] = system: Pseudomonas aeruginosa PS18; details: read-out: Minimum Inhibitory Concentration
Source text: as §1

[11] = system: Pseudomonas aeruginosa PS72; details: read-out: Minimum Inhibitory Concentration
Source text: as §1

[12] = system: Pseudomonas aeruginosa X239; details: read-out: Minimum Inhibitory Concentration
Source text: as §1

[13] = system: Pseudomonas aeruginosa X528; details: read-out: Minimum Inhibitory Concentration
Source text: as §1

Salmonella typhi 1335 = details: Salmonella enterica, read-out: Minimum Inhibitory Concentration
Source text: as §1

Salmonella typhi X514 = details: Salmonella enterica, read-out: Minimum Inhibitory Concentration
Source text: as §1

Serratia marcescens SE3 = details: read-out: Minimum Inhibitory Concentration
Source text: as §1

Serratia marcescens X99 = details: read-out: Minimum Inhibitory Concentration
Source text: as §1

Shigella sonnei N9 = details: read-out: Minimum Inhibitory Concentration
Source text: as §1

[14] = system: Staphylococcus aureus 513E; details: read-out: Minimum Inhibitory Concentration
Source text: as §1

[15] = system: Staphylococcus aureus V41; details: read-out: Minimum Inhibitory Concentration
Source text: as §1

[16] = system: Staphylococcus aureus X1.1; details: read-out: Minimum Inhibitory Concentration
Source text: as §1

[17] = system: Staphylococcus aureus X400; details: read-out: Minimum Inhibitory Concentration
Source text: as §1

[18] = system: Staphylococcus epidermidis 222; details: read-out: Minimum Inhibitory Concentration
Source text: as §1

[19] = system: Staphylococcus epidermidis EPi1; details: read-out: Minimum Inhibitory Concentration
Source text: as §1

[20] = system: Streptococcus Group D 2041; details: GROUPD2041, read-out: Minimum Inhibitory Concentration
Source text: as §1

[21] = system: Streptococcus Group D X66; details: read-out: Minimum Inhibitory Concentration
Source text: as §1

[22] = system: Streptococcus pneumoniae Park I; details: read-out: Minimum Inhibitory Concentration
Source text: as §1

[23] = system: Streptococcus pyogenes C203; details: read-out: Minimum Inhibitory Concentration
Source text: as §1

[24] = system: Haemophilus influenzae 76; details: read-out: Minimum Inhibitory Concentration
Source text: as §1

Compound | MIC [1] | MIC [2] | MIC [3] | MIC [4] | MIC [5] | MIC (Enterobacter cloacae EB5) | MIC (Escherichia coli N10) | MIC (Escherichia coli TEM) | MIC [6] | MIC [7] | MIC [8] | MIC (Proteus morganii PR15) | MIC [10] | MIC [11] | MIC [12] | MIC [13] | MIC (Salmonella typhi 1335) | MIC (Salmonella typhi X514) | MIC (Serratia marcescens SE3) | MIC (Serratia marcescens X99) | other results
Cn1nc(O)c(=O)nc1SCC1=C(C(=O)O)N2C(=O)[C@@H](NC(=O)/C(=N\OCc3ccc(O)cc3)c3csc(N)n3)[C@H]2SC1 [Test Compound A, 7β-[2-(2-Aminothiazol-4-yl)-2-(4-hydroxybenzyloxyimino)acetamido]-3-[(2,5-dihydro-6-hydroxy-2-methyl5-oxo-1,2,4-triazin-3-yl)thiomethyl]-3-cephem-4carboxylic acid] | 16 µg/mL (≈ 24.7 µM) | 4 µg/mL (≈ 6.19 µM) | 0.25 µg/mL (≈ 0.387 µM) | 0.5 µg/mL (≈ 0.773 µM) | 128 µg/mL (≈ 198 µM) | 0.5 µg/mL (≈ 0.773 µM) | 0.25 µg/mL (≈ 0.387 µM) | 0.03 µg/mL (≈ 0.0464 µM) | 0.03 µg/mL (≈ 0.0464 µM) | 16 µg/mL (≈ 24.7 µM) | 0.06 µg/mL (≈ 0.0928 µM) | 1 µg/mL (≈ 1.55 µM) | 16 µg/mL (≈ 24.7 µM) | 64 µg/mL (≈ 99 µM) | 8 µg/mL (≈ 12.4 µM) | 128 µg/mL (≈ 198 µM) | 0.25 µg/mL (≈ 0.387 µM) | 0.125 µg/mL (≈ 0.193 µM) | 4 µg/mL (≈ 6.19 µM) | 0.5 µg/mL (≈ 0.773 µM) | MIC (Escherichia coli EC14; Escherichia coli, EC14, read-out: Minimum Inhibitory Concentration): 0.125 µg/mL (≈ 0.193 µM); MIC ([9]; Klebsiella pneumoniae, X68, read-out: Minimum Inhibitory Concentration): 0.125 µg/mL (≈ 0.193 µM); MIC (Proteus inconstans PR33; PR33, read-out: Minimum Inhibitory Concentration): 0.125 µg/mL (≈ 0.193 µM); MIC (Proteus rettgeri C24; C24, read-out: Minimum Inhibitory Concentration): 0.125 µg/mL (≈ 0.193 µM); MIC (Shigella sonnei N9): 0.125 µg/mL (≈ 0.193 µM); MIC [14]: 8 µg/mL (≈ 12.4 µM); MIC [15]: 8 µg/mL (≈ 12.4 µM); MIC [16]: 1 µg/mL (≈ 1.55 µM); MIC [17]: 16 µg/mL (≈ 24.7 µM); MIC [18]: 2 µg/mL (≈ 3.09 µM); MIC [19]: 8 µg/mL (≈ 12.4 µM); MIC [20]: 1 µg/mL (≈ 1.55 µM); MIC [21]: 128 µg/mL (≈ 198 µM); MIC [22]: < 0.008 µg/mL; MIC [23]: < 0.008 µg/mL
Cn1nc(O)c(=O)nc1SCC1=C(C(=O)O)N2C(=O)[C@@H](NC(=O)/C(=N\OCc3cc(Cl)ccc3Cl)c3csc(N)n3)[C@H]2SC1 [Test Compound B, 7β-[2-(2-Aminothiazol-4-yl)-2-(2,5-dichlorobenzyloxyimino)acetamido]-3-[(2,5-dihydro-6-hydroxy-2-methyl-5-oxo-1,2,4-triazin-3-yl)thiomethyl]-3-cephem-4-carboxylic acid] | 2 µg/mL (≈ 2.86 µM) | 2 µg/mL (≈ 2.86 µM) | 0.25 µg/mL (≈ 0.357 µM) | 1 µg/mL (≈ 1.43 µM) | 128 µg/mL (≈ 183 µM) | 0.25 µg/mL (≈ 0.357 µM) | 0.25 µg/mL (≈ 0.357 µM) | 0.06 µg/mL (≈ 0.0858 µM) | 0.03 µg/mL (≈ 0.0429 µM) | 16 µg/mL (≈ 22.9 µM) | 0.06 µg/mL (≈ 0.0858 µM) | 0.5 µg/mL (≈ 0.715 µM) | 32 µg/mL (≈ 45.7 µM) | 16 µg/mL (≈ 22.9 µM) | 8 µg/mL (≈ 11.4 µM) | 64 µg/mL (≈ 91.5 µM) | 1 µg/mL (≈ 1.43 µM) | 0.25 µg/mL (≈ 0.357 µM) | 2 µg/mL (≈ 2.86 µM) | 1 µg/mL (≈ 1.43 µM) | MIC (Escherichia coli EC14; Escherichia coli EC14, agar dilution, read-out: Minimum Inhibitory Concentration): 0.25 µg/mL (≈ 0.357 µM); MIC [24]: 0.015 µg/mL (≈ 0.0214 µM); MIC ([9]; Klebsiella pneumoniae X68, agar dilution, read-out: Minimum Inhibitory Concentration): 0.25 µg/mL (≈ 0.357 µM); MIC (Proteus inconstans PR33; Proteus inconstans PR33, agar dilution, read-out: Minimum Inhibitory Concentration): 0.25 µg/mL (≈ 0.357 µM); MIC (Proteus rettgeri C24; Proteus rettgeri C24, agar dilution, read-out: Minimum Inhibitory Concentration): 0.5 µg/mL (≈ 0.715 µM); MIC (Shigella sonnei N9): 0.5 µg/mL (≈ 0.715 µM); MIC [14]: 4 µg/mL (≈ 5.72 µM); MIC [15]: 4 µg/mL (≈ 5.72 µM); MIC [16]: 0.5 µg/mL (≈ 0.715 µM); MIC [17]: 32 µg/mL (≈ 45.7 µM); MIC [18]: 0.5 µg/mL (≈ 0.715 µM); MIC [19]: 8 µg/mL (≈ 11.4 µM); MIC [20]: 0.5 µg/mL (≈ 0.715 µM); MIC [21]: > 128 µg/mL; MIC [22]: < 0.008 µg/mL; MIC [23]: < 0.008 µg/mL
